Source: patent US10913765B2, “Liver specific delivery-based gemcitabine prodrug nucleoside cyclic phosphate compound, and application thereof” (ZHEJIANG PALO ALTO PHARMACEUTICALS, INC., priority 2017, dated 2021)

Conditions: human, 5 min, 25 μM, pH 7.4
Protocol: Human liver microsomes (HLM) were purchased from IVT (In Vitro Technologies), lot number SSP, article number X008070.
Enzymatic reaction was carried out in 100 mM KH2PO4 buffer solution (pH 7.4), the concentration of the test compounds was 25 M, the concentration of human liver microsomes was 2 mg/ml, and NADPH concentration was 2 mM. The reaction was initiated by NADPH finally added, and after reaction for 5 min in a constant-temperature shaking water bath kettle, 1.5 times of volume of methanol containing internal standard (PMPA) was immediately added to terminate the reaction.
(§1) Centrifugation was carried out for 20 minutes at a maximum speed of 13,600 rpm using an Eppendorf tabletop centrifuge. Supernatant was taken, and after being blow-dried by a nitrogen blower, the supernatant was re-dissolved into a mobile phase A (0.1% formic acid v/v aqueous solution).
(§2) Analytical column: Waters, Acquity UPLC HSS T3 column
Column temperature: 40° C.
(§3) Ion source: electrospray ionization source
Ion mode: positive ion mode
Capillary voltage: 3.0 kV
Desolventizing airflow speed: 100 L/h

| Conversion rate to dFdCMP relative to that of PA4001 | Conversion rate to dFdCMP relative to that of PA4003 | SMILES |
| --- | --- | --- |
| 1.0 times | about 7.3 times | Nc1ccn([C@@H]2O[C@H](COP3(=O)OCC[C@H](c4cc(F)cc(Cl)c4)O3)[C@@H](O)C2(F)F)c(=O)n1 (stereo partly drawn) [PA4002] |
| 1.3 times | ~9.5 times | Nc1ccn([C@@H]2O[C@H](COP3(=O)OCC[C@H](c4cc(Cl)ccc4F)O3)[C@@H](O)C2(F)F)c(=O)n1 (stereo partly drawn) [PA4004] |

Conditions: human, 5 min, 25 μM, pH 7.4
Remark: another data set of the same source
Protocol: Human liver microsomes (HLM) were purchased from IVT (In Vitro Technologies), article number X008070, lot number IQF.
Enzymatic reaction was carried out in 100 mM KH2PO4 buffer solution (pH 7.4), the concentration of the test compounds was 25 μM, the concentration of human liver microsomes was 2 mg/ml, and NADPH concentration was 2 mM. The reaction was initiated by NADPH finally added, and after reaction for 5 min in a constant-temperature shaking water bath kettle, 1.5 times of volume of methanol containing internal standard (PMPA) was immediately added to terminate the reaction.
as §1, §2
Column temperature: 40° C.
as §3
Ion mode: positive ion mode
Capillary voltage: 3.0 kV
Desolventizing airflow speed: 100 L/h

| Activation Rate (rate of releasing monophosphate product dFdCMP) | Conversion rate to dFdCMP relative to that of PA4004 | SMILES |
| --- | --- | --- |
| 10.98 ± 1.23 pmol/min/mg HLM |  | Nc1ccn([C@@H]2O[C@H](COP3(=O)OCC[C@H](c4cc(Cl)ccc4F)O3)[C@@H](O)C2(F)F)c(=O)n1 (stereo partly drawn) [PA4004] |
| 6.92 ± 0.01 pmol/min/mg HLM |  | Nc1ccn([C@@H]2O[C@H](COP3(=O)OCC[C@H](c4cc(Cl)cc(Cl)c4)O3)[C@@H](O)C2(F)F)c(=O)n1 (stereo partly drawn) [PA4006] |
| 5.45 ± 0.12 pmol/min/mg HLM |  | Nc1ccn([C@@H]2O[C@H](COP3(=O)OCC[C@H](c4ccc(F)c(Cl)c4)O3)[C@@H](O)C2(F)F)c(=O)n1 (stereo partly drawn) [PA4008] |
| 10.45 ± 0.85 pmol/min/mg HLM |  | Nc1ccn([C@@H]2O[C@H](COP3(=O)OCC[C@H](c4ccc(Cl)c(F)c4)O3)[C@@H](O)C2(F)F)c(=O)n1 (stereo partly drawn) [PA4009] |
| 9.56 ± 0.07 pmol/min/mg HLM |  | Nc1ccn([C@@H]2O[C@H](COP3(=O)OCC[C@H](c4cccc(Cl)c4F)O3)[C@@H](O)C2(F)F)c(=O)n1 (stereo partly drawn) [PA4010] |
| 35.28 ± 0.81 pmol/min/mg HLM | ~3.2 times | Nc1ccn([C@@H]2O[C@H](COP3(=O)OCC[C@H](c4cc(F)ccc4Cl)O3)[C@@H](O)C2(F)F)c(=O)n1 (stereo partly drawn) [PA4011] |
| 38.95 ± 1.17 pmol/min/mg HLM | about 3.5 times | Nc1ccn([C@@H]2O[C@H](COP3(=O)OCC[C@H](c4cc(Cl)ccc4Cl)O3)[C@@H](O)C2(F)F)c(=O)n1 (stereo partly drawn) [PA4012] |
| 7.23 ± 0.53 pmol/min/mg HLM |  | Nc1ccn([C@@H]2O[C@H](COP3(=O)OCC[C@H](c4cc(F)ccc4F)O3)[C@@H](O)C2(F)F)c(=O)n1 (stereo partly drawn) [PA4013] |
| 6.49 ± 0.19 pmol/min/mg HLM |  | Nc1ccn([C@@H]2O[C@H](COP3(=O)OCC[C@H](c4cccc(F)c4F)O3)[C@@H](O)C2(F)F)c(=O)n1 (stereo partly drawn) [PA4014] |
| 4.32 ± 0.76 pmol/min/mg HLM |  | Nc1ccn([C@@H]2O[C@H](COP3(=O)OCC[C@H](c4ccc(F)c(F)c4)O3)[C@@H](O)C2(F)F)c(=O)n1 (stereo partly drawn) [PA4017] |
| 7.62 ± 0.48 pmol/min/mg HLM |  | Nc1ccn([C@@H]2O[C@H](COP3(=O)OCC[C@H](c4cccc(Cl)c4Cl)O3)[C@@H](O)C2(F)F)c(=O)n1 (stereo partly drawn) [PA4018] |
| 5.25 ± 0.13 pmol/min/mg HLM |  | Nc1ccn([C@@H]2O[C@H](COP3(=O)OCC[C@H](c4ccc(Cl)c(Cl)c4)O3)[C@@H](O)C2(F)F)c(=O)n1 (stereo partly drawn) [PA4021] |
